Results on nine compounds are retold here after patent US5846936A, “Growth hormone releasing factor analogs” (Roche Vitamins Inc., priority 1995, dated 1998).

One series deals with rat pituitary cells. In kind it is cell-based. The procedure:
The biological activity of the novel peptides were compared with that of a synthetic standard of the natural sequence of GRF(1-44)-NH2 (SEQ ID NO: 1-NH2) which was isolated from a human pancreatic tumor of an individual suffering from acromegaly (Salk Institute standard hp-GRF-NH2 (NL-A-10)). The assay for biological activity, which is based on the ability to stimulate production of growth hormone in rat pituitary cells in tissue culture, was performed in the following manner. Pituitaries from 30-40 male Sprague-Dawley rats (175 g) were removed aseptically after decapitation. The anterior lobes were collected, washed 3 times in sterile Hepes buffer (0.025M)(pH 7.35) and dispersed at 37° C. in 20-30 ml Hepes buffer (pH 7.35) containing collagenase (4 mg per ml) and Dispase (Protease grande II, 2 mg per ml). After gentle 80 min. vortexing and trituration by Pasteur pipette, the dispersed cells were separated by centrifugation (150×g, 4 min.) and re-suspended in Hepes buffer containing neuraminidase (4 mg/ml), and […] ethylenediaminetetraacetic acid (EDTA) disodium salt pH 7.35, for 10 min. The cells were washed twice with plating medium and plated on multiwell-plates (1.5×10^5 cells per ml) using the following defined medium: F-12/DMEM/BGJ(6:3:1) (Gibco: 430-1700/430-1600/320-2591) with 2 g BSA/L., 2.38 g Hepes/L.,50 mg Gentamycin/L (Schering Co.). The medium in each well was supplemented either with the novel peptide or natural GRF(1-44)-NH2 (SEQ ID NO: 1-NH2) at concentrations ranging from 3.1 to 200 fmol. per ml. of medium. Control wells contained no supplement. Plating was done with this medium added with 2% fetal calf serum to ensure rapid fixation of the cells. On the fourth day the cells were washed twice with the defined medium without fetal calf serum. Finally […] of defined medium was added to each well plus […] of the same medium containing each individual treatment, in triplicate. After 3 hours of incubation the medium was collected and diluted as required to conduct radioimmunoassay (RIA) for rat growth hormone. RIAs were conducted using Sinha's anti-murine GH immune serum and procedures according to the National Pituitary Agency using protein A to precipitate antibody antigen complex.

Series [1] is described as follows: Half-life stability of GRF analogs in aqueous solution by reverse phase HPLC. In kind it is physicochemical. To be noted: aqueous buffer pH 7.40 (0.25M Na2HPO4/H3PO4, 1.0 mM NaN3), 37° C., 0.15 mg/mL. On the procedure:
Half-life stability of GRF analogs in aqueous solution was determined by reverse phase HPLC at 37° C. GRF analogs were prepared as described above. GRF analogs were dissolved in […] of H2 O and then taken up in 1.0 mL of buffer solution (pH 7.40) containing 0.25M Na2 HPO4 /H3 PO4 and 1.0 mM NaN3. The concentration of the GRF analogs was 0.15 mg/mL. The HPLC system was a Laboratory Data Control (LDC) HPLC with a Waters C-18 column (3.9×300 mm, 10μ). The detector was a LDC Spectromonitor III and the gradient delivery system was a Constametric II. Mobile phase--(A) 0.025% TFA in H2 O, (B) 0.025% TFA in acetonitrile. Gradient was 0-37% (B) in 15 minutes for SEQ ID NO: 8-NH2 where Xaa^1 is desNH2 Tyr and Xaa^2 is D-Ala and SEQ ID NO: 9-NH2 where Xaa^1 is desNH2 Tyr and Xaa^2 is D-Ala; 0-35% (B) in 15 minutes for SEQ ID NO: 35-NH2 where Xaa^1 is desNH2 Tyr and Xaa^2 is D-Ala; and 0-36% (B) in 15 minutes for SEQ ID NO: 10-NH2 where Xaa^1 is desNH2 Tyr and Xaa^2 is D-Ala. Flow rate for all gradients was 2 ml/minute. Detection was at 206 nm using a UV detector.

Where a SMILES comes first, the peptide text is derived from it. Where no end group is shown, it is not given here. [ ]: non-standard residue; d: D form. The star is where a group is joined. Desaminotyrosyl = O=C(CCc1ccc(O)cc1)*

In the case of `CC[C@H](C)[C@H](NC(=O)[C@H](C)NC(=O)[C@H](CC(=O)O)NC(=O)[C@@H](C)NC(=O)CCc1ccc(O)cc1)C(=O)N[C@@H](Cc1ccccc1)C(=O)N[C@H](C(=O)N[C@H](C(=O)N[C@@H](CO)C(=O)N[C@@H](Cc1ccc(O)cc1)C(=O)N[C@@H](CCCNC(=N)N)C(=O)N[C@@H](CCCCN)C(=O)N[C@H](C(=O)N[C@@H](CC(C)C)C(=O)N[C@@H](C)C(=O)N[C@@H](CCC(N)=O)C(=O)N[C@@H](CC(C)C)C(=O)N[C@@H](CO)C(=O)N[C@@H](C)C(=O)N[C@@H](CCCNC(=N)N)C(=O)N[C@@H](CCCCN)C(=O)N[C@@H](CC(C)C)C(=O)N[C@@H](CC(C)C)C(=O)N[C@@H](CCC(N)=O)C(=O)N[C@@H](CC(=O)O)C(=O)N[C@H](C(=O)N[C@@H](CCSC)C(=O)N[C@@H](CO)C(=O)N[C@@H](CCCNC(=N)N)C(N)=O)[C@@H](C)CC)C(C)C)[C@@H](C)O)[C@@H](C)O` [SEQ ID NO: 8-NH2] (Desaminotyrosyl-[dA]DAIFTTSYRKVLAQLSARKLLQDIMSR-NH2), the “Potency of GRF Analogs Relative to GRF(1-44)-NH2 (SEQ ID NO: 1-NH2)” value in the series on rat pituitary cells is recorded as 3.77. Moreover, the “HALF-LIFE t(1/2)” value in series [1] is 169 h.

As for “HVDAIFTQSYRKVLAQLSARKLLQDILSRQQG [SEQ ID NO: 13-OH]”, the “Potency of GRF Analogs Relative to GRF(1-44)-NH2 (SEQ ID NO: 1-NH2)” value in the series on rat pituitary cells is recorded as 2.79. As for `CC[C@H](C)[C@H](NC(=O)[C@H](C)NC(=O)[C@H](CC(=O)O)NC(=O)[C@@H](C)NC(=O)CCc1ccc(O)cc1)C(=O)N[C@@H](Cc1ccccc1)C(=O)N[C@H](C(=O)N[C@@H](CCC(N)=O)C(=O)N[C@@H](CO)C(=O)N[C@@H](Cc1ccc(O)cc1)C(=O)N[C@@H](CCCNC(=N)N)C(=O)N[C@@H](CCCCN)C(=O)N[C@H](C(=O)N[C@@H](CC(C)C)C(=O)N[C@@H](C)C(=O)N[C@@H](CCC(N)=O)C(=O)N[C@@H](CC(C)C)C(=O)N[C@@H](CO)C(=O)N[C@@H](C)C(=O)N[C@@H](CCCNC(=N)N)C(=O)N[C@@H](CCCCN)C(=O)N[C@@H](CC(C)C)C(=O)N[C@@H](CC(C)C)C(=O)N[C@@H](CCC(N)=O)C(=O)N[C@@H](CC(=O)O)C(=O)N[C@H](C(=O)N[C@@H](CCSC)C(=O)N[C@@H](CO)C(=O)N[C@@H](CCCNC(=N)N)C(N)=O)[C@@H](C)CC)C(C)C)[C@@H](C)O` [SEQ ID NO: 10-NH2] (Desaminotyrosyl-[dA]DAIFTQSYRKVLAQLSARKLLQDIMSR-NH2), in the series on rat pituitary cells, the “Potency of GRF Analogs Relative to GRF(1-44)-NH2 (SEQ ID NO: 1-NH2)” value was 4.57. The “HALF-LIFE t(1/2)” value in series [1] was 122 h. Consider `CC[C@H](C)[C@H](NC(=O)[C@H](C)NC(=O)[C@H](CC(=O)O)NC(=O)[C@H](C)NC(=O)[C@@H](N)Cc1ccc(O)cc1)C(=O)N[C@@H](Cc1ccccc1)C(=O)N[C@H](C(=O)N[C@@H](CC(N)=O)C(=O)N[C@@H](CO)C(=O)N[C@@H](Cc1ccc(O)cc1)C(=O)N[C@@H](CCCNC(=N)N)C(=O)N[C@@H](CCCCN)C(=O)N[C@H](C(=O)N[C@@H](CC(C)C)C(=O)NCC(=O)N[C@@H](CCC(N)=O)C(=O)N[C@@H](CC(C)C)C(=O)N[C@@H](CO)C(=O)N[C@@H](C)C(=O)N[C@@H](CCCNC(=N)N)C(=O)N[C@@H](CCCCN)C(=O)N[C@@H](CC(C)C)C(=O)N[C@@H](CC(C)C)C(=O)N[C@@H](CCC(N)=O)C(=O)N[C@@H](CC(=O)O)C(=O)N[C@H](C(=O)N[C@@H](CCSC)C(=O)N[C@@H](CO)C(=O)N[C@@H](CCCNC(=N)N)C(=O)N[C@@H](CCC(N)=O)C(=O)N[C@@H](CCC(N)=O)C(=O)NCC(=O)N[C@@H](CCC(=O)O)C(=O)N[C@@H](CO)C(=O)N[C@@H](CC(N)=O)C(=O)N[C@@H](CCC(N)=O)C(=O)N[C@@H](CCC(=O)O)C(=O)N[C@@H](CCCNC(=N)N)C(=O)NCC(=O)N[C@@H](C)C(=O)N[C@@H](CCCNC(=N)N)C(=O)N[C@@H](C)C(=O)N[C@@H](CCCNC(=N)N)C(=O)N[C@@H](CC(C)C)C(N)=O)[C@@H](C)CC)C(C)C)[C@@H](C)O` [SEQ ID NO: 1-NH2, GRF(1-44)-NH2, reference compound], for which the “Potency of GRF Analogs Relative to GRF(1-44)-NH2 (SEQ ID NO: 1-NH2)” value in the series with rat pituitary cells turned out to be 1.00. For the compound `CC[C@H](C)[C@H](NC(=O)[C@H](C)NC(=O)[C@H](CC(=O)O)NC(=O)[C@@H](C)NC(=O)CCc1ccc(O)cc1)C(=O)N[C@@H](Cc1ccccc1)C(=O)N[C@H](C(=O)N[C@@H](CCC(N)=O)C(=O)N[C@@H](CO)C(=O)N[C@@H](Cc1ccc(O)cc1)C(=O)N[C@@H](CCCNC(=N)N)C(=O)N[C@@H](CCCCN)C(=O)N[C@H](C(=O)N[C@@H](CC(C)C)C(=O)N[C@@H](C)C(=O)N[C@@H](CCC(N)=O)C(=O)N[C@@H](CC(C)C)C(=O)N[C@@H](CO)C(=O)N[C@@H](C)C(=O)N[C@@H](CCCNC(=N)N)C(=O)N[C@@H](CCCCN)C(=O)N[C@@H](CC(C)C)C(=O)N[C@@H](CC(C)C)C(=O)N[C@@H](CCC(N)=O)C(=O)N[C@@H](CC(=O)O)C(=O)N[C@H](C(=O)N[C@@H](CC(C)C)C(=O)N[C@@H](CO)C(=O)N[C@@H](CCCNC(=N)N)C(=O)N[C@@H](CCC(N)=O)C(=O)N[C@@H](CCC(N)=O)C(=O)NCC(=O)O)[C@@H](C)CC)C(C)C)[C@@H](C)O` [SEQ ID NO: 31-OH] (Desaminotyrosyl-[dA]DAIFTQSYRKVLAQLSARKLLQDILSRQQG-OH), the “Potency of GRF Analogs Relative to GRF(1-44)-NH2 (SEQ ID NO: 1-NH2)” value in the series on rat pituitary cells turned out to be 4.20.

Turning to `CC[C@H](C)[C@H](NC(=O)[C@H](C)NC(=O)[C@H](CC(=O)O)NC(=O)[C@@H](C)NC(=O)CCc1ccc(O)cc1)C(=O)N[C@@H](Cc1ccccc1)C(=O)N[C@H](C(=O)N[C@@H](CO)C(=O)N[C@@H](CO)C(=O)N[C@@H](Cc1ccc(O)cc1)C(=O)N[C@@H](CCCNC(=N)N)C(=O)N[C@@H](CCCCN)C(=O)N[C@H](C(=O)N[C@@H](CC(C)C)C(=O)N[C@@H](C)C(=O)N[C@@H](CCC(N)=O)C(=O)N[C@@H](CC(C)C)C(=O)N[C@@H](CO)C(=O)N[C@@H](C)C(=O)N[C@@H](CCCNC(=N)N)C(=O)N[C@@H](CCCCN)C(=O)N[C@@H](CC(C)C)C(=O)N[C@@H](CC(C)C)C(=O)N[C@@H](CCC(N)=O)C(=O)N[C@@H](CC(=O)O)C(=O)N[C@H](C(=O)N[C@@H](CCSC)C(=O)N[C@@H](CO)C(=O)N[C@@H](CCCNC(=N)N)C(N)=O)[C@@H](C)CC)C(C)C)[C@@H](C)O` [SEQ ID NO: 9-NH2] (Desaminotyrosyl-[dA]DAIFTSSYRKVLAQLSARKLLQDIMSR-NH2), the “Potency of GRF Analogs Relative to GRF(1-44)-NH2 (SEQ ID NO: 1-NH2)” value in the series on rat pituitary cells stood at 3.55. Take “HVDAIFTQSYRKVLAQLSARKLLQDILNRQQG [SEQ ID NO: 14-OH]”: the “Potency of GRF Analogs Relative to GRF(1-44)-NH2 (SEQ ID NO: 1-NH2)” value in the series on rat pituitary cells is 3.11. Consider `CC[C@H](C)[C@H](NC(=O)[C@H](C)NC(=O)[C@H](CC(=O)O)NC(=O)[C@@H](C)NC(=O)[C@@H](N)Cc1c[nH]cn1)C(=O)N[C@@H](Cc1ccccc1)C(=O)N[C@H](C(=O)N[C@@H](CCC(N)=O)C(=O)N[C@@H](CO)C(=O)N[C@@H](Cc1ccc(O)cc1)C(=O)N[C@@H](CCCNC(=N)N)C(=O)N[C@@H](CCCCN)C(=O)N[C@H](C(=O)N[C@@H](CC(C)C)C(=O)N[C@@H](C)C(=O)N[C@@H](CCC(N)=O)C(=O)N[C@@H](CC(C)C)C(=O)N[C@@H](CO)C(=O)N[C@@H](C)C(=O)N[C@@H](CCCNC(=N)N)C(=O)N[C@@H](CCCCN)C(=O)N[C@@H](CC(C)C)C(=O)N[C@@H](CC(C)C)C(=O)N[C@@H](CCC(N)=O)C(=O)N[C@@H](CC(=O)O)C(=O)N[C@H](C(=O)N[C@@H](CC(C)C)C(=O)N[C@@H](CO)C(=O)N[C@@H](CCCNC(=N)N)C(=O)N[C@@H](CCC(N)=O)C(=O)N[C@@H](CCC(N)=O)C(=O)NCC(=O)O)[C@@H](C)CC)C(C)C)[C@@H](C)O` [SEQ ID NO: 17-OH] (H-H[dA]DAIFTQSYRKVLAQLSARKLLQDILSRQQG-OH), for which the “Potency of GRF Analogs Relative to GRF(1-44)-NH2 (SEQ ID NO: 1-NH2)” value with rat pituitary cells is reported as 3.23. As to “HADAIFTQSYRKVLAQLSARKLLQDILSRQQG [SEQ ID NO: 23-OH]”, the “Potency of GRF Analogs Relative to GRF(1-44)-NH2 (SEQ ID NO: 1-NH2)” value in the series with rat pituitary cells turned out to be 2.96.
